According to ChEMBL document CHEMBL1649488, “In vitro activities of echinocandins against Candida krusei determined by three methods: MIC and minimal fungicidal concentration measurements and time-kill studies” (2009):
Converted amounts (≈) assume the structure as drawn. The source made the active and inactive calls. The calls are words filed in the database; no cut-off is given here.

What was measured:
Type in all cases: functional
Pichia kudriavzevii [1] = assay: Fungicidal activity against Candida krusei CK2 bloodstream forms after 24 hrs by time-kill analysis; conditions: CK2, 24 h
Pichia kudriavzevii [2] = assay: Antifungal activity against Candida krusei EU123 bloodstream forms after 24 hrs by time-kill analysis; conditions: EU123, 24 h
Pichia kudriavzevii [3] = assay: Antifungal activity against Candida krusei ATCC 6258 bloodstream forms assessed as time to achieve 50% fungal growth reduction at 8 mg/L by time-kill analysis
Pichia kudriavzevii [4] = assay: Antifungal activity against Candida krusei ATCC 6258 bloodstream forms assessed as minimum concentration producing >= 100% growth reduction after 48 hrs by M27-A3 microdilution method; conditions: ATCC 6258, 48 h
Pichia kudriavzevii [5] = assay: Antifungal activity against Candida krusei ATCC 6258 bloodstream forms assessed as time to achieve 50% fungal growth reduction at 2 mg/L by time-kill analysis
Pichia kudriavzevii [6] = assay: Antifungal activity against Candida krusei ATCC 6258 bloodstream forms assessed as time to achieve 99% fungal growth reduction at 8 mg/L by time-kill analysis
Pichia kudriavzevii [7] = assay: Antifungal activity against Candida krusei ATCC 6258 bloodstream forms assessed as time to achieve 99.9% fungal growth reduction at 0.12 mg/L by time-kill analysis
Pichia kudriavzevii [8] = assay: Antifungal activity against Candida krusei ATCC 6258 bloodstream forms assessed as minimum concentration producing >= 50% growth reduction after 24 hrs by M27-A3 microdilution method; conditions: ATCC 6258, 24 h
Pichia kudriavzevii [9] = assay: Antifungal activity against Candida krusei ATCC 6258 bloodstream forms assessed as time to achieve 99.9% fungal growth reduction at 0.5 mg/L by time-kill analysis
Pichia kudriavzevii [10] = assay: Antifungal activity against Candida krusei CK6 bloodstream forms after 24 hrs by time-kill analysis; conditions: CK6, 24 h
Pichia kudriavzevii [11] = assay: Antifungal activity against Candida krusei ATCC 6258 bloodstream forms assessed as time to achieve 99% fungal growth reduction at 32 mg/L by time-kill analysis
Pichia kudriavzevii [12] = assay: Antifungal activity against Candida krusei ATCC 6258 bloodstream forms assessed as time to achieve 99% fungal growth reduction at 2 mg/L by time-kill analysis
Pichia kudriavzevii [13] = assay: Antifungal activity against Candida krusei ATCC 6258 bloodstream forms assessed as time to achieve 99% fungal growth reduction at 0.5 mg/L by time-kill analysis
Pichia kudriavzevii [14] = assay: Fungicidal activity against Candida krusei ATCC 6258 bloodstream forms after 48 hrs by M27-A3 microdilution method
Pichia kudriavzevii [15] = assay: Antifungal activity against Candida krusei ATCC 6258 bloodstream forms assessed as time to achieve 50% fungal growth reduction at 0.5 mg/L by time-kill analysis
Pichia kudriavzevii [16] = assay: Fungicidal activity against Candida krusei EU123 bloodstream forms after 24 hrs by time-kill analysis; conditions: EU123, 24 h
Pichia kudriavzevii [17] = assay: Antifungal activity against Candida krusei ATCC 6258 bloodstream forms assessed as time to achieve 90% fungal growth reduction at 8 mg/L by time-kill analysis
Pichia kudriavzevii [18] = assay: Antifungal activity against Candida krusei ATCC 6258 bloodstream forms assessed as time to achieve 90% fungal growth reduction at 32 mg/L by time-kill analysis
Pichia kudriavzevii [19] = assay: Fungicidal activity against Candida krusei EU220 bloodstream forms after 24 hrs by time-kill analysis; conditions: EU220, 24 h
Pichia kudriavzevii [20] = assay: Antifungal activity against Candida krusei ATCC 6258 bloodstream forms assessed as time to achieve 50% fungal growth reduction at 32 mg/L by time-kill analysis
Pichia kudriavzevii [21] = assay: Antifungal activity against Candida krusei CK18 bloodstream forms after 24 hrs by time-kill analysis; conditions: CK18, 24 h
Pichia kudriavzevii [22] = assay: Fungicidal activity against Candida krusei CK1 bloodstream forms after 24 hrs by time-kill analysis; conditions: CK1, 24 h
Pichia kudriavzevii [23] = assay: Fungicidal activity against Candida krusei CK18 bloodstream forms after 24 hrs by time-kill analysis; conditions: CK18, 24 h
Pichia kudriavzevii [24] = assay: Antifungal activity against Candida krusei CK1 bloodstream forms after 24 hrs by time-kill analysis; conditions: CK1, 24 h
Pichia kudriavzevii [25] = assay: Antifungal activity against Candida krusei ATCC 6258 bloodstream forms assessed as minimum concentration producing >= 100% growth reduction after 24 hrs by M27-A3 microdilution method; conditions: ATCC 6258, 24 h
Pichia kudriavzevii [26] = assay: Antifungal activity against Candida krusei ATCC 6258 bloodstream forms assessed as time to achieve 99.9% fungal growth reduction at 2 mg/L by time-kill analysis
Pichia kudriavzevii [27] = assay: Antifungal activity against Candida krusei ATCC 6258 bloodstream forms assessed as time to achieve 99.9% fungal growth reduction at 32 mg/L by time-kill analysis
Pichia kudriavzevii [28] = assay: Antifungal activity against Candida krusei ATCC 6258 bloodstream forms assessed as time to achieve 90% fungal growth reduction at 0.12 mg/L by time-kill analysis
Pichia kudriavzevii [29] = assay: Antifungal activity against Candida krusei CK2 bloodstream forms after 24 hrs by time-kill analysis; conditions: CK2, 24 h
Pichia kudriavzevii [30] = assay: Antifungal activity against Candida krusei EU220 bloodstream forms after 24 hrs by time-kill analysis; conditions: EU220, 24 h
Pichia kudriavzevii [31] = assay: Fungicidal activity against Candida krusei CK6 bloodstream forms after 24 hrs by time-kill analysis; conditions: CK6, 24 h
Pichia kudriavzevii [32] = assay: Antifungal activity against Candida krusei ATCC 6258 bloodstream forms assessed as time to achieve 50% fungal growth reduction at 0.12 mg/L by time-kill analysis
Pichia kudriavzevii [33] = assay: Antifungal activity against Candida krusei CY118 bloodstream forms after 24 hrs by time-kill analysis; conditions: CY118, 24 h
Pichia kudriavzevii [34] = assay: Antifungal activity against Candida krusei ATCC 6258 bloodstream forms assessed as minimum concentration producing >= 50% growth reduction after 48 hrs by M27-A3 microdilution method; conditions: ATCC 6258, 48 h
Pichia kudriavzevii [35] = assay: Antifungal activity against Candida krusei ATCC 6258 bloodstream forms assessed as time to achieve 99.9% fungal growth reduction at 8 mg/L by time-kill analysis
Pichia kudriavzevii [36] = assay: Antifungal activity against Candida krusei ATCC 6258 bloodstream forms assessed as time to achieve 90% fungal growth reduction at 2 mg/L by time-kill analysis
Pichia kudriavzevii [37] = assay: Antifungal activity against Candida krusei ATCC 6258 bloodstream forms assessed as time to achieve 90% fungal growth reduction at 0.5 mg/L by time-kill analysis
Pichia kudriavzevii [38] = assay: Antifungal activity against Candida krusei ATCC 6258 bloodstream forms after 24 hrs by time-kill analysis; conditions: ATCC 6258, 24 h
Pichia kudriavzevii [39] = assay: Antifungal activity against Candida krusei ATCC 6258 bloodstream forms assessed as time to achieve 99% fungal growth reduction at 0.12 mg/L by time-kill analysis
Pichia kudriavzevii [40] = assay: Fungicidal activity against Candida krusei CY118 bloodstream forms after 24 hrs by time-kill analysis; conditions: CY118, 24 h
Pichia kudriavzevii [41] = assay: Fungicidal activity against Candida krusei ATCC 6258 bloodstream forms after 24 hrs by time-kill analysis; conditions: ATCC 6258, 24 h

Which MFC (Pichia kudriavzevii [1]) does the source give for `CC[C@H](C)C[C@H](C)CCCCCCCCC(=O)N[C@H]1C[C@@H](O)[C@@H](NCCN)NC(=O)[C@@H]2[C@@H](O)CCN2C(=O)[C@H]([C@H](O)CCN)NC(=O)[C@H]([C@H](O)[C@@H](O)c2ccc(O)cc2)NC(=O)[C@@H]2C[C@@H](O)CN2C(=O)[C@H]([C@@H](C)O)NC1=O` [CASPOFUNGIN] here?
The MFC was 1 µg/mL (≈ 0.915 µM).

And the MIC (Pichia kudriavzevii [2])?
Its MIC is 2 µg/mL (≈ 1.83 µM).

And the Time (Pichia kudriavzevii [3])?
Its Time is 2.9 h.

And the MIC (Pichia kudriavzevii [4])?
Its MIC is 0.8 µg/mL (≈ 0.732 µM).

What about the MIC50 (Pichia kudriavzevii [4]) of the same molecule?
Its MIC50 is 1 µg/mL (≈ 0.915 µM).

And the MIC90 (Pichia kudriavzevii [4])?
Its MIC90 is 2 µg/mL (≈ 1.83 µM).

And the Time (Pichia kudriavzevii [5])?
The Time was 3.7 h.

And the Time (Pichia kudriavzevii [6])?
Its Time is 19.5 h.

What about the Activity (Pichia kudriavzevii [7]) of the same molecule?
The Activity was “inactive”.

What about the MIC50 (Pichia kudriavzevii [8]) of the same molecule?
Its MIC50 is 1 µg/mL (≈ 0.915 µM).

What about the MIC90 (Pichia kudriavzevii [8]) of the same molecule?
Its MIC90 is 2 µg/mL (≈ 1.83 µM).

What about the Time (Pichia kudriavzevii [9]) of the same molecule?
The Time was greater than 48 h.

What about the MIC (Pichia kudriavzevii [10]) of the same molecule?
Its MIC is 1 µg/mL (≈ 0.915 µM).

And the Time (Pichia kudriavzevii [11])?
The Time was 14.3 h.

And the Time (Pichia kudriavzevii [12])?
Its Time is 24.9 h.

And the Time (Pichia kudriavzevii [13])?
The Time was greater than 48 h.

And the MFC50 (Pichia kudriavzevii [14])?
The MFC50 was 2 µg/mL (≈ 1.83 µM).

And the MFC90 (Pichia kudriavzevii [14])?
The MFC90 was 8 µg/mL (≈ 7.32 µM).

What about the MFC (Pichia kudriavzevii [14]; Pichia kudriavzevii, ATCC 6258, 48 h) of the same molecule?
The MFC was 1 µg/mL (≈ 0.915 µM).

And the Time (Pichia kudriavzevii [15])?
Its Time is 8.3 h.

What about the MFC (Pichia kudriavzevii [16]) of the same molecule?
The MFC was 2 µg/mL (≈ 1.83 µM).

And the Time (Pichia kudriavzevii [17])?
The Time was 9.7 h.

What about the Time (Pichia kudriavzevii [18]) of the same molecule?
The Time was 7.1 h.

And the MFC (Pichia kudriavzevii [19])?
Its MFC is 2 µg/mL (≈ 1.83 µM).

And the Time (Pichia kudriavzevii [20])?
Its Time is 2.1 h.

And the MIC (Pichia kudriavzevii [21])?
The MIC was 1 µg/mL (≈ 0.915 µM).

And the MFC (Pichia kudriavzevii [22])?
The MFC was 8 µg/mL (≈ 7.32 µM).

And the MFC (Pichia kudriavzevii [23])?
The MFC was 2 µg/mL (≈ 1.83 µM).

What about the MIC (Pichia kudriavzevii [24]) of the same molecule?
The MIC was 1 µg/mL (≈ 0.915 µM).

What about the MIC50 (Pichia kudriavzevii [25]) of the same molecule?
Its MIC50 is 1 µg/mL (≈ 0.915 µM).

What about the MIC90 (Pichia kudriavzevii [25]) of the same molecule?
The MIC90 was 2 µg/mL (≈ 1.83 µM).

What about the Time (Pichia kudriavzevii [26]) of the same molecule?
The Time was 37.4 h.

And the Time (Pichia kudriavzevii [27])?
The Time was 21.4 h.

And the Activity (Pichia kudriavzevii [28])?
The Activity was “inactive”.

And the MIC (Pichia kudriavzevii [29])?
The MIC was 1 µg/mL (≈ 0.915 µM).

And the MIC (Pichia kudriavzevii [30])?
The MIC was 2 µg/mL (≈ 1.83 µM).

What about the MFC (Pichia kudriavzevii [31]) of the same molecule?
The MFC was 1 µg/mL (≈ 0.915 µM).

What about the Activity (Pichia kudriavzevii [32]) of the same molecule?
Its Activity is “inactive”.

What about the MIC (Pichia kudriavzevii [33]) of the same molecule?
The MIC was 4 µg/mL (≈ 3.66 µM).

And the MIC50 (Pichia kudriavzevii [34])?
The MIC50 was 1 µg/mL (≈ 0.915 µM).

And the MIC90 (Pichia kudriavzevii [34])?
Its MIC90 is 2 µg/mL (≈ 1.83 µM).

And the Time (Pichia kudriavzevii [35])?
The Time was 29.2 h.

What about the Time (Pichia kudriavzevii [36]) of the same molecule?
Its Time is 12.5 h.

What about the Time (Pichia kudriavzevii [37]) of the same molecule?
The Time was 27.6 h.

And the MIC (Pichia kudriavzevii [38])?
The MIC was 1 µg/mL (≈ 0.915 µM).

What about the Activity (Pichia kudriavzevii [39]) of the same molecule?
The Activity was “inactive”.

And the MFC (Pichia kudriavzevii [40])?
Its MFC is greater than 64 µg/mL.

What about the MFC (Pichia kudriavzevii [41]) of the same molecule?
The MFC was 2 µg/mL (≈ 1.83 µM).
